The experiment concerns the target T1, JAK2V617F (Homo sapiens, UniProt O60674, V617F).
T1 construct: expressed in transfected cells; host or cells: Ba/F3 (murine pro-B) cells
The experiment can be described thus: Ba/F3 JAK2V617F cell-based assay (Cellomics ArrayScan HCS). Also on record: species or system murine. The following applies: Ba/F3 cells expressing JAK2V617F, 60 min compound incubation; read-out: relative IC50, inhibition of pSTAT5. The text has this:
JAK2 target inhibition has been evaluated in Ba/F3 expressing JAK2 V617F by Western blot as reported in Wernig et al. (Wernig G, et al. Efficacy of TG101348, a selective JAK2 inhibitor, in treatment of a murine model of JAK2V617F-induced polycythemia vera, Cancer Cell, April; 13(4):311-20). A medium throughput Cellomics assay was established to evaluate the JAK2 target inhibition in Ba/F3 cells expressing JAK2V617F. This assay enables the discovery of an effective therapeutic agent to treat disorders associated with JAK2V617F mutation.
Ba/F3 (murine pro-B) cells expressing JAK2V617F maintained in RPMI 1640 with 10% FBS, 0.07% sodium bicarbonate, 1 mM sodium pyruvate, 1× antibiotic/antimycotic (Invitrogen, Carlsbad, Calif.) and 0.45% glucose (Sigma, St Louis, Mo.). Cells are kept at 37° C. with 5% CO2. The test compound is prepared in 100% DMSO at 10 mM concentration. […]
After cell treatment, 500 μL of 1% formaldehyde solution (made freshly with phosphate-buffered saline (PBS) and kept warm at 37° C.) is added to each well. […] An aliquot of 200 μL of 1 to 10 dilution of Mouse anti-pSTAT5 (pY694) Alexa Fluor 647® in fluorescence activated cell sorting (FACS) buffer is added to the cells. […] Mean fluorescent intensity data are collected and analyzed using Cellomics Arrayscan® VTi. […] The relative IC50 is calculated using a 4 parameter logistic curve fitting analysis with ActivityBase 4.0. […]

T1 sequence (O60674 whole entry V617F): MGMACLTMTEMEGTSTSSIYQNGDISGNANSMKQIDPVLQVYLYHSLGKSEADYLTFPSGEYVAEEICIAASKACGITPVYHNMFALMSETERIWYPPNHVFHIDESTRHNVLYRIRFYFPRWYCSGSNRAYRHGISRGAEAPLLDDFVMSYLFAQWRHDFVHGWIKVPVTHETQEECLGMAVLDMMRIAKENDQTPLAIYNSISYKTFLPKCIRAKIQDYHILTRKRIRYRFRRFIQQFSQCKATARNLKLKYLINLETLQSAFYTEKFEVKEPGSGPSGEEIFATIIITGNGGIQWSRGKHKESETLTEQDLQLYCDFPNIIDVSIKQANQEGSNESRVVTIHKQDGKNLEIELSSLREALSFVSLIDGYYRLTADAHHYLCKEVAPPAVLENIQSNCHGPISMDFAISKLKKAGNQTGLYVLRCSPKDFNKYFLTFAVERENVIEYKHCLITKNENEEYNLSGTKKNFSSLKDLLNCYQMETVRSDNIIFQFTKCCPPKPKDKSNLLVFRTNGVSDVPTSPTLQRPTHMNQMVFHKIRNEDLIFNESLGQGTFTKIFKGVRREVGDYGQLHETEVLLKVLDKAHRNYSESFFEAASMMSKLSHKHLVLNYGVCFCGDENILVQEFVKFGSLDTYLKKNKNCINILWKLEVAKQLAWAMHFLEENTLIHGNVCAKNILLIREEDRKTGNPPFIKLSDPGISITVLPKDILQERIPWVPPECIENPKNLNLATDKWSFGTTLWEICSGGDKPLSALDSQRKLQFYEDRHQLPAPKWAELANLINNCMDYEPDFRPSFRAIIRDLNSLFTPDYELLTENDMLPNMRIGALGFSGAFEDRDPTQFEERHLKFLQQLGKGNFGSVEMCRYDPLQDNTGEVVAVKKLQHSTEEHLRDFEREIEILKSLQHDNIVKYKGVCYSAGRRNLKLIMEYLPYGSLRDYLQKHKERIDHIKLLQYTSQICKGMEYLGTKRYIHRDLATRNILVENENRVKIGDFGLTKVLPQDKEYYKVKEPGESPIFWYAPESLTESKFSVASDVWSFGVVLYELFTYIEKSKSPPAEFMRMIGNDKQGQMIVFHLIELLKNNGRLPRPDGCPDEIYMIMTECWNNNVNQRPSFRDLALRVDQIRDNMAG

Broadly, the IC50 is the concentration that gives 50% inhibition. As for `Cc1cc(Nc2cc(CN3CCOCC3)c3nc(C)c(Cc4ccc(Cl)cc4F)n3n2)n[nH]1` [3-(4-Chloro-2-fluorobenzyl)-2-methyl-N-(5-methyl-1H-pyrazol-3-yl)-8-(morpholinomethyl)imidazo[1,2-b]pyridazin-6-amine], the IC50 was determined as 30 nM.
